Earlier results in patent US5621142A, “Aminoalkylcyclopropane derivatives” (Asahi Kasei Kogyo Kabushiki Kaisha, priority 1994, dated 1997).

Columns and labels:
[1] = test system: synaptosomal uptake of norepipephrine; details: Neuropharmacology, Vol. 24, No. 12, 1211-1219, 1985
[2] = test system: synaptosomal uptake of 5-HT; details: Neuropharmacology, Vol. 24, No. 12, 1211-1219, 1985

Structure (SMILES): CCN(CC)C(=O)C1(c2ccccc2)CC1CN.Cl (centres unmarked) [compound (A), 1-phenyl-1-diethylaminocarbonyl-2-aminomethyl-cyclopropane hydrochloride]
- activity to inhibit the synaptosomal uptake of norepipephrine [1]: has an activity to inhibit the synaptosomal uptake of norepipephrine and 5-HT
- activity to inhibit the synaptosomal uptake of 5-HT [2]: has an activity to inhibit the synaptosomal uptake of norepipephrine and 5-HT
